{"source": "patent US7217735B1", "about": "“Methods and compositions for enhancing delivery of therapeutic agents to tissues” (priority 1999, dated 2007)", "key": {"microtubule": {"tested_on": "microtubule", "settings": "cited from earlier work"}, "PC3 xenograft tumor [1]": {"tested_on": "PC3 xenograft tumor", "assay": "Doxorubicin accumulation and penetration in tumor histocultures (fluorescence microscopy)", "format": "in vitro ADME, human", "settings": "for Tissue-to-medium concentration ratio at 72 hr / Tissue concentration at 72 hr: PC3 xenograft tumor; for Tissue concentration at 72 hr: in µM; for distribution of fluorescence signal: 5 or 20 μM", "description": "The androgen-independent human prostate PC3 cells were maintained as xenograft tumors in male nude mice according to the previously published procedures (Pretlow et al., 1993; Nagabhushan et al., 1996). Briefly, minced tumor tissue mixed with the same volume of Matrigel was implanted into both flanks of the nude mice at 0.3 ml per site. Tumors were harvested when they reached a size of 1 g at about 1.5 to 2 months after implantation.\n(§1) In this example, the penetration of doxorubicin into multilayer tissue was monitored using prostate tumor specimens obtained from human cancer patients and using the human prostate PC3 xenograft tumor maintained in athymic mice. Doxorubicin was monitored by fluorescence.\n(§2) Histocultures of tumors were incubated with 1, 5 or 20:M doxorubicin as described in Example 1. […] At 4, 12, 24, 36, 48, and 72 hours, histocultures were collected and processed as described in Example 1. The fluorescence emitted by doxorubicin was visualized using fluorescence microscopy. The excitation and emission wavelengths were 546 nm and 565 nm, respectively. Microscopic images were captured using a Charged Couple Device (CCD) camera and the captured images were analyzed using Optimas image analysis software (Silver spring, MD). The doxorubicin concentration in tissues was quantified using standard curves (each curve contained six data points), established as follows. Samples for the standard curves were prepared by applying known amounts of doxorubicin in solution to microscope sections of blank dog prostate tissue. The standard doxorubicin solutions (2:1) were pipetted on 10:m-thick blank tissue sections, and carefully spread over a surface area of approximately 1.5–2 cm^2. The standard slides were scanned using the same conditions as the samples. The average fluorescence intensity per area were measured. Plots of the fluorescence readings against the applied doxorubicin concentrations in the standard curve samples provided the standard curves used to quantify the doxorubicin in the actual samples. For the latter, at least three sections were used to obtain the mean value in one tumor, and at least three tumors were used to obtain the mean value at each time point.\n(§3) The rate of doxorubicin penetration into patient and PC3 xenograft tumors was monitored using fluorescence microscopy."}, "[2]": {"tested_on": "human prostate tumor histocultures", "settings": "cited from earlier work"}, "[3]": {"tested_on": "patient prostate tumors and PC3 xenograft tumors", "assay": "Doxorubicin concentration versus distance from tumor periphery (FIG. 4)", "format": "in vitro ADME, human", "description": "as §2, with “The standard doxorubicin solutions (2:1) were pipetted on 10:m-thick blank tissue sections, and carefully spread over a surface area of approximately 1.5–2 cm^2. The standard slides were scanned using the same conditions as the samples.” left out, “For the latter, at least three sections were used to obtain the mean value in one tumor, and at least three tumors were used to obtain the mean value at each time point.” left out\nFIG. 4 summarizes the drug concentration in tumor tissue, expressed as tissue-to-medium concentration ratio, as a function of the distance from the periphery of the tumor histocultures. […]"}, "PC3 xenograft tumor [4]": {"tested_on": "PC3 xenograft tumor", "assay": "Tumor cell density after doxorubicin treatment", "format": "cell-based, human", "settings": "5 or 20 μM", "description": "The fractions of stromal tissue and tumor cells in each histoculture were measured using image analysis. Briefly, stromal and tumor cells of a 100× magnification field were outlined with the computer mouse. The sizes of each of these regions were determined via image analysis by counting the number of pixels in the region. […] Apoptotic cells were determined based on morphological changes in tumor cells such as chromatin condensation and margination, disappearance of nucleoli, formation of membrane blebs, apoptotic bodies and/or cell shrinkage (Kerr J F R et al. (1994) Cancer 73:2013). […] For each tumor piece, 50 to 100 images were processed, and the fractions of the tumor represented by tumor cells, stromal tissue, and interstitial space were calculated."}, "patient prostate tumors": {"tested_on": "patient prostate tumors", "assay": "Doxorubicin accumulation and penetration in tumor histocultures (fluorescence microscopy)", "format": "in vitro ADME, human", "settings": "for Tissue concentration at 72 hr: in µM; for distribution of fluorescence signal: 5 or 20 μM", "description": "as §1, §2, §3"}}}
{"smiles": "CC(=O)O[C@H]1C(=O)[C@@]2(C)[C@H]([C@H](OC(=O)c3ccccc3)[C@]3(O)C[C@H](OC(=O)[C@H](O)[C@@H](NC(=O)c4ccccc4)c4ccccc4)C(C)=C1C3(C)C)[C@]1(OC(C)=O)CO[C@@H]1C[C@@H]2O", "note": "[7-epitaxol]", "values": [{"measurement": "microtubule binding affinity compared with paclitaxel", "setting": "microtubule", "value": "similar"}]}
{"smiles": "COc1cccc2c1C(=O)c1c(O)c3c(c(O)c1C2=O)C[C@@](O)(C(=O)CO)C[C@@H]3O[C@H]1C[C@H](N)[C@H](O)[C@H](C)O1", "note": "[doxorubicin]", "values": [{"measurement": "PC3 xenograft-to-patient tumor concentration ratio at 72 hr", "setting": "PC3 xenograft tumor [1]; 1 μM in culture medium", "value": 1.15}, {"measurement": "PC3 xenograft-to-patient tumor concentration ratio at 72 hr", "setting": "PC3 xenograft tumor [1]; 5 μM in culture medium", "value": 1.35}, {"measurement": "PC3 xenograft-to-patient tumor concentration ratio at 72 hr", "setting": "PC3 xenograft tumor [1]; 20 μM in culture medium", "value": 1.5}, {"measurement": "Tissue-to-medium concentration ratio at 72 hr", "setting": "PC3 xenograft tumor [1]; 1 μM in culture medium", "value": "33.6 ± 3.9"}, {"measurement": "Tissue concentration at 72 hr", "setting": "PC3 xenograft tumor [1]; 1 μM in culture medium", "value": "33.6 ± 3.9"}, {"measurement": "Tissue-to-medium concentration ratio at 72 hr", "setting": "PC3 xenograft tumor [1]; 5 μM in culture medium", "value": "42.7 ± 3.3"}, {"measurement": "Tissue concentration at 72 hr", "setting": "PC3 xenograft tumor [1]; 5 μM in culture medium", "value": "213 ± 16.4"}, {"measurement": "Tissue-to-medium concentration ratio at 72 hr", "setting": "PC3 xenograft tumor [1]; 20 μM in culture medium", "value": "55.3 ± 9.6"}, {"measurement": "Tissue concentration at 72 hr", "setting": "PC3 xenograft tumor [1]; 20 μM in culture medium", "value": "1107 ± 193"}, {"measurement": "drug distribution", "setting": "PC3 xenograft tumor [1]; xenograft tumor, 1 μM, at 72 hr", "value": "remained confined to the periphery"}, {"measurement": "distribution of fluorescence signal", "setting": "PC3 xenograft tumor [1]; xenograft tumor, after 36 hr", "value": "evenly distributed"}, {"measurement": "distribution of fluorescence signal", "setting": "PC3 xenograft tumor [1]; xenograft tumor, first 24 hr", "value": "confined to the periphery"}, {"measurement": "IC50", "setting": "[2]; human prostate tumor histocultures, read-out: IC50, inhibition of tumor cell growth", "value": 61, "unit": "nM"}, {"measurement": "CC50", "setting": "[2]; human prostate tumor histocultures, read-out: LC50, tumor cell death", "value": 2100, "unit": "nM"}, {"measurement": "concentration sufficient to produce 50% cell death", "setting": "[2]; patient prostate tumors", "value": "2.1 :M"}, {"measurement": "concentration sufficient to produce 90% cell death", "setting": "[2]; patient prostate tumors", "value": "4.2 :M"}, {"measurement": "concentration sufficient to produce 90% inhibition of tumor cell proliferation", "setting": "[2]; patient prostate tumors", "value": "0.4 :M"}, {"measurement": "equilibrium between far end (325 μm) and periphery (75 μm) concentration", "setting": "[3]; 1 μM", "value": "did not reach equilibrium"}, {"measurement": "time at which equilibrium between far end and periphery was attained", "setting": "[3]; 5 and 20 μM", "value": 36, "unit": "h"}, {"measurement": "cell density in the periphery of the tumor", "setting": "PC3 xenograft tumor [4]", "value": "decreased with time"}, {"measurement": "Tissue-to-medium concentration ratio at 72 hr", "setting": "patient prostate tumors; 1 μM in culture medium", "value": "29.2 ± 7.8"}, {"measurement": "Tissue concentration at 72 hr", "setting": "patient prostate tumors; 1 μM in culture medium", "value": "29.2 ± 7.8"}, {"measurement": "drug distribution", "setting": "patient prostate tumors; 1 μM, by 72 hr", "value": "distributed evenly throughout the patient tumors"}, {"measurement": "Tissue-to-medium concentration ratio at 72 hr", "setting": "patient prostate tumors; 5 μM in culture medium", "value": "31.6 ± 14.2"}, {"measurement": "Tissue concentration at 72 hr", "setting": "patient prostate tumors; 5 μM in culture medium", "value": "158 ± 70.9"}, {"measurement": "Tissue-to-medium concentration ratio at 72 hr", "setting": "patient prostate tumors; 20 μM in culture medium", "value": "36.9 ± 26.5"}, {"measurement": "Tissue concentration at 72 hr", "setting": "patient prostate tumors; 20 μM in culture medium", "value": "739 ± 531"}, {"measurement": "distribution of fluorescence signal", "setting": "patient prostate tumors; after 24 hr", "value": "evenly distributed throughout the histoculture"}, {"measurement": "distribution of fluorescence signal", "setting": "patient prostate tumors; first 12 hr", "value": "confined to the periphery"}]}
